# Test results as given in publication PMC3021545, “Insulin Reduces Neuronal Excitability by Turning on GABAA Channels that Generate Tonic Current” (PLoS ONE, 2011).
# Tested on: T1, insulin-induced high-affinity extrasynaptic GABAA channels (α5, γ2 containing; α5βγ2) of CA1 pyramidal neurons
# T1 construct: gene Gabra5
# Details: insulin-treated (1 nM) slices; -60 mV; ambient GABA; 20-22 °C; inverse agonist
structure (smiles),measurement,value
"CCOC(=O)c1ncn2c1[C@@H]1CCCN1C(=O)c1cc(OC)ccc1-2 [L655, 708]",% inhibition at 5 μM,85±4%
